Results on 28 compounds are retold here after US10098878B2, “HIF-2α inhibitors for treating iron overload disorders” (The Board of Regents of the University of Texas System, priority 2014, dated 2018).

Test [1] concerns the target T1, HIF-2α HIS TAG-PASB Domain (Homo sapiens, UniProt Q99814).
T1 construct: 100 nM HIF-2α HIS TAG-PASB Domain
Nature of the test: HIF-2α Scintillation Proximity Assay (SPA). The format is binding. The settings on record: 100 nM HIF-2α HIS TAG-PASB Domain. In short, it runs like this: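 IC50 values rest on percent inhibition, where the sample signal is scaled between high and low controls. Wells contain about 100 μL: compound dispensed as 2 μL of DMSO solution, 88 μL protein-probe mix and 10 μL of beads.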
On the technique in general: In a scintillation proximity assay essentially only radioactivity close to the scintillant gives light.

In another test the test system is 786-O-Hif-Luc cells. Put plainly: Luciferase Assay. The format is cell-based. The settings on record: read-out: Luciferase EC50. The protocol:
A pool of infected cells were then selected against 2 μg/mL of puromycin (P8833, Sigma) for 10 days followed by limited dilution to select single clones.
Each concentration was tested in triplicate. After about 24 hours, luciferase activity was determined using ONE-Glo Luciferase Assay Reagent (E6110, Promega) following the manufacturer's recommended procedure. EC50 were calculated by using Dotmatics software.

[2] abbreviates: 150 nM Compound 211 probe, read-out: SPA IC50.
[3] abbreviates: 24 h, 786-O-Hif-Luc cells, about 24 hours.
The mark [4] stands for this setting: SPA IC50, 150 nM Compound 211 probe.
[5] abbreviates: 786-O-Hif-Luc cells, about 24 hours.

Like-named read-outs stand apart in the source and are kept apart here. A value given as a limit tells only on which side of the number the result lay.

T1 sequence (Q99814 240-350 limits assumed): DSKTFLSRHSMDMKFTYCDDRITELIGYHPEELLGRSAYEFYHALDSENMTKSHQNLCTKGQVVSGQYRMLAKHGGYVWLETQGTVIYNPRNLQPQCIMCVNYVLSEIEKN

As to `O=S1(=O)CC(O)c2c1ccc(Oc1cc(F)cc(Cl)c1)c2C(F)F` (centres unmarked) [Compound 125, 5-(3-Chloro-5-fluorophenoxy)-4-(difluoromethyl)-3-hydroxy-2,3-dihydrobenzo[b]thiophene 1,1-dioxide], the IC50 (as a rule, the concentration needed to halve the response being measured) in test [1] (setting [2]) was found to be 100 nM. Further, the EC50 (commonly the midpoint of the concentration-response curve) with 786-O-Hif-Luc cells (setting [3]) came out at 725 nM.
As for `O=S1(=O)c2ccc(Oc3cncc(F)c3)c(Br)c2[C@@H](O)C1(F)F` [Compound 187, (R)-4-bromo-2,2-difluoro-5-((5-fluoropyridin-3-yl)oxy)-3-hydroxy-2,3-dihydrobenzo[b]thiophene 1,1-dioxide], the IC50 in test [1] (setting [2]) is 305 nM. Also, the EC50 with 786-O-Hif-Luc cells (setting [3]) stood at 126 nM.
As for `N#Cc1cc(Oc2ccc3c(c2C(F)F)[C@@H](O)C(F)(F)S3(=O)=O)ccc1F` [Compound 201, (R)-5-((4-(Difluoromethyl)-2,2-difluoro-3-hydroxy-1,1-dioxido-2,3-dihydrobenzo[b]thiophen-5-yl)oxy)-2-fluorobenzonitrile], the IC50 in test [1] (setting [2]) came out at 72 nM. In the test on 786-O-Hif-Luc cells (setting [3]), the concentration giving a half-maximal response (EC50) was 308 nM.
`N#Cc1c(Oc2cc(F)cc(Cl)c2)ccc2c1C(O)C(F)(F)S2(=O)=O` (centres unmarked) [Compound 120, 5-(3-chloro-5-fluorophenoxy)-2,2-difluoro-3-hydroxy-2,3-dihydrobenzo[b]thiophene-4-carbonitrile 1,1-dioxide] gave an IC50 in test [1] (setting [4]) of 45 nM. Besides, the concentration for a half-maximal effect (EC50) in the test with 786-O-Hif-Luc cells was 4170 nM.
As to `N#CN=S(=O)(CF)c1ccc(Oc2cc(F)cc(C#N)c2)c2c1[C@H](O)[C@H](F)C2` (single isomer, unassigned) [Compound 40], the IC50 in test [1] (setting [2]) came out at 58 nM. In the test on 786-O-Hif-Luc cells (setting [5]), the EC50 stood at 153 nM.
Compound `N#Cc1cncc(Oc2ccc3c(c2C(F)F)C(O)C(F)(F)S3(=O)=O)c1` (centres unmarked) [Compound 147, 5-((4-(Difluoromethyl)-2,2-difluoro-3-hydroxy-1,1-dioxido-2,3-dihydrobenzo[b]thiophen-5-yl)oxy)nicotinonitrile] yielded an IC50 in test [1] (setting [4]) of 120 nM. Besides, the EC50 in the test on 786-O-Hif-Luc cells came out at 170 nM.
Consider `CS(=O)(=O)c1ccc(Oc2cc(F)cc(C#N)c2)c2c1[C@H](O)[C@H](F)[C@@H]2O` [Compound 60, 3-fluoro-5-[(1S,2R,3R)-2-fluoro-1,3-dihydroxy-7-methylsulfonyl-indan-4-yl]oxy-benzonitrile], for which, in test [1] (setting [2]), the IC50 amounted to 1340 nM. Also, in the test on 786-O-Hif-Luc cells (setting [3]), the EC50 is 1320 nM.
Regarding `N#Cc1c(Oc2cc(F)cc(F)c2)ccc2c1[C@@H](O)CS2(=O)=O` [Compound 178, (R)-5-(3,5-difluorophenoxy)-3-hydroxy-2,3-dihydrobenzo[b]thiophene-4-carbonitrile 1,1-dioxide], the IC50 in test [1] (setting [2]) worked out at 120 nM. Further, the half-maximal effective concentration (EC50) in the test on 786-O-Hif-Luc cells (setting [3]) was 366 nM.
Consider `N#Cc1cc(F)cc(Oc2ccc3c(c2F)C(O)C(F)(F)S3(=O)=O)c1` (centres unmarked) [Compound 198, 3-Fluoro-5-((2,2,4-trifluoro-3-hydroxy-1,1-dioxido-2,3-dihydrobenzo[b]thiophen-5-yl)oxy)benzonitrile], for which the IC50 in test [1] (setting [2]) was found to be 975 nM. For the same compound, in the test on 786-O-Hif-Luc cells (setting [3]), the concentration for a half-maximal effect (EC50) stood at 882 nM.
For the compound `O=S1(=O)c2ccc(OCc3ccccc3)c(C(F)F)c2C(O)C1(F)F` (centres unmarked) [Compound 175, 5-Benzyloxy-4-(difluoromethyl)-2,2-difluoro-1,1-dioxo-3H-benzothiophen-3-ol], the half-maximal inhibitory concentration (IC50) in test [1] (setting [2]) turned out to be 565 nM. Besides, the EC50 in the test with 786-O-Hif-Luc cells (setting [3]) was determined as 510 nM.
In the case of `N=S1(=O)c2ccc(Oc3cc(F)cc(F)c3)c(Br)c2C(O)C1(F)F` (single isomer, unassigned) [Compound 142, 4-bromo-5-(3,5-difluorophenoxy)-2,2-difluoro-3-hydroxy-1-imino-2,3-dihydro-1H-1λ^4-benzo[b]thiophene 1-oxide], the half-maximal inhibitory concentration (IC50) in test [1] (setting [2]) came out at 239 nM. Further, in the test with 786-O-Hif-Luc cells (setting [5]), the half-maximal effective concentration (EC50) is 286 nM.
With `C=CCN=S(=O)(c1ccc(Oc2cc(F)cc(C#N)c2)c2c1[C@H](O)C(F)(F)C2)C(F)(F)F` (single isomer, unassigned) [Compound 71], the half-inhibitory concentration (IC50) in test [1] (setting [2]) came out at 370 nM. The EC50 in the test on 786-O-Hif-Luc cells (setting [5]) was found to be 1670 nM.
`COc1c(Oc2cc(F)cc(C#N)c2)ccc2c1C(O)C(F)(F)S2(=O)=O` (centres unmarked) [Compound 197, 3-((2,2-Difluoro-3-hydroxy-4-methoxy-1,1-dioxido-2,3-dihydrobenzo[b]thiophen-5-yl)oxy)-5-fluorobenzonitrile]: the IC50 in test [1] (setting [2]) is 940 nM. In addition, the EC50 with 786-O-Hif-Luc cells (setting [3]) was found to be 1100 nM.
The matching figures for `N#Cc1cc(F)cc(Oc2ccc(S(=O)(=O)C(F)(F)F)c3c2CC(F)(F)[C@H]3NCCO)c1` [Compound 55, 3-[(1S)-2,2-difluoro-1-(2-hydroxyethylamino)-7-(trifluoromethylsulfonyl)indan-4-yl]oxy-5-fluoro-benzonitrile]: 4900 nM and 3100 nM.
Take `Cc1cncc(Oc2ccc3c(c2Br)[C@@H](O)C(F)(F)S3(=O)=O)c1` [Compound 192, (R)-4-bromo-2,2-difluoro-3-hydroxy-5-((5-methylpyridin-3-yl)oxy)-2,3-dihydrobenzo[b]thiophene 1,1-dioxide]: in test [1] (setting [2]), the 50% inhibitory concentration (IC50) came out at 2900 nM. Further, in the test with 786-O-Hif-Luc cells (setting [3]), the EC50 stood at 1420 nM.
For `CC1(O)c2c(ccc(Oc3cc(F)cc(F)c3)c2Br)S(=O)(=O)C1(F)F` (centres unmarked) [Compound 208, 4-Bromo-5-(3,5-difluorophenoxy)-2,2-difluoro-3-hydroxy-3-methyl-2,3-dihydrobenzo[b]thiophene 1,1-dioxide], in test [1] (setting [2]), the half-inhibitory concentration (IC50) was 83 nM. In addition, the 50% effective concentration (EC50) with 786-O-Hif-Luc cells (setting [3]) came to 296 nM.
For `O=S1(=O)c2ccc(Oc3cncc(Cl)c3)c(Cl)c2[C@@H](O)C1(F)F` [Compound 196, (R)-4-Chloro-5-((5-chloropyridin-3-yl)oxy)-2,2-difluoro-3-hydroxy-2,3-dihydrobenzo[b]thiophene 1,1-dioxide], the half-inhibitory concentration (IC50) in test [1] (setting [2]) is 384 nM. Also, the EC50 in the test with 786-O-Hif-Luc cells (setting [3]) stood at 425 nM.
For the compound `Cc1cc(C#N)cc(Oc2ccc3c(c2C(F)F)[C@@H](O)C(F)(F)S3(=O)=O)c1` [Compound 156, (R)-3-((4-(Difluoromethyl)-2,2-difluoro-3-hydroxy-1,1-dioxido-2,3-dihydrobenzo[b]thiophen-5-yl)oxy)-5-methylbenzonitrile], the IC50 in test [1] (setting [2]) was less than 5 nM. Also, the EC50 with 786-O-Hif-Luc cells (setting [3]) was found to be 100 nM.
For `N#CN=S1(=O)c2ccc(Oc3cc(F)cc(F)c3)c(C(F)F)c2C(O)C1(F)F` (centres unmarked) [Compound 161, N-(4-(Difluoromethyl)-5-(3,5-difluorophenoxy)-2,2-difluoro-3-hydroxy-1-oxido-2,3-dihydro-1λ^4-benzo[b]thiophen-1-ylidene)cyanamide], in test [1] (setting [2]), the half-maximal inhibitory concentration (IC50) was found to be 20 nM. The concentration giving a half-maximal response (EC50) in the test on 786-O-Hif-Luc cells (setting [3]) amounted to 1500 nM.
In the case of `O=S1(=O)c2ccc(Oc3ccc(F)c(F)c3)c(C(F)F)c2[C@@H](O)C1(F)F` [Compound 200, (R)-4-(Difluoromethyl)-5-(3,4-difluorophenoxy)-2,2-difluoro-3-hydroxy-2,3-dihydrobenzo[b]thiophene 1,1-dioxide], in test [1] (setting [2]), the IC50 was 24 nM. Besides, the EC50 in the test with 786-O-Hif-Luc cells (setting [3]) was 79 nM.
For the compound `N#Cc1cc(F)cc(Oc2ccc3c(c2C(F)F)C(=O)C(F)(F)S3(=O)=O)c1` [Compound 149, 3-((4-(Difluoromethyl)-2,2-difluoro-1,1-dioxido-3-oxo-2,3-dihydrobenzo[b]thiophen-5-yl)oxy)-5-fluorobenzonitrile], the IC50 in test [1] (setting [4]) was determined as 2400 nM. Also, the EC50 in the test on 786-O-Hif-Luc cells (setting [5]) is 2790 nM.
`COc1cc(F)cc(Oc2ccc3c(c2Br)[C@@H](O)C(F)(F)S3(=O)=O)c1` [Compound 190, (R)-4-Bromo-2,2-difluoro-5-(3-fluoro-5-methoxyphenoxy)-3-hydroxy-2,3-dihydrobenzo[b]thiophene 1,1-dioxide]: the IC50 in test [1] (setting [2]) came to 57 nM. Besides, the half-maximal effective concentration (EC50) in the test with 786-O-Hif-Luc cells (setting [3]) stood at 413 nM.
Turning to `CS(=N)(=O)c1ccc(Oc2cc(F)cc(F)c2)c2c1[C@H](O)C(F)(F)C2` (stereo partly drawn) [Compound 10, ((S)-7-(3,5-Difluorophenoxy)-2,2-difluoro-3-hydroxy-2,3-dihydro-1H-inden-4-yl)(imino)(methyl)-λ^6-sulfanone], the IC50 in test [1] (setting [2]) was 177 nM. Further, the concentration giving a half-maximal response (EC50) with 786-O-Hif-Luc cells (setting [3]) stood at 277 nM.
With `O=S1(=O)c2ccc(Oc3cccc4sccc34)c(C(F)F)c2C(O)C1(F)F` (centres unmarked) [Compound 204, 5-(Benzo[b]thiophen-4-yloxy)-4-(difluoromethyl)-2,2-difluoro-3-hydroxy-2,3-dihydrobenzo[b]thiophene 1,1-dioxide], in test [1] (setting [2]), the half-maximal inhibitory concentration (IC50) came out at 11 nM. Also, the concentration for a half-maximal effect (EC50) with 786-O-Hif-Luc cells (setting [3]) came out at 455 nM.
Consider `O=S1(=O)c2ccc(OCC3CC3)c(C(F)F)c2[C@@H](O)C1(F)F` [Compound 203, (R)-5-(Cyclopropylmethoxy)-4-(difluoromethyl)-2,2-difluoro-3-hydroxy-2,3-dihydrobenzo[b]thiophene 1,1-dioxide], for which the half-maximal inhibitory concentration (IC50) in test [1] (setting [2]) is 1890 nM. Also, the concentration for a half-maximal effect (EC50) in the test with 786-O-Hif-Luc cells (setting [3]) came out at 1160 nM.
As for `CS(=O)(=O)c1ccc(Oc2cncc(Br)c2)c2c1[C@H](O)C(F)(F)C2` [Compound 88, (S)-4-((5-Bromopyridin-3-yl)oxy)-2,2-difluoro-7-(methylsulfonyl)-2,3-dihydro-1H-inden-1-ol], the concentration for half-maximal inhibition (IC50) in test [1] (setting [2]) was 54 nM. Further, the 50% effective concentration (EC50) in the test on 786-O-Hif-Luc cells (setting [3]) came out at 475 nM.
Regarding `O=S1(=O)c2ccc(OC3CCOCC3)c(C(F)F)c2C(O)C1(F)F` (centres unmarked) [Compound 164, 4-(Difluoromethyl)-2,2-difluoro-3-hydroxy-5-((tetrahydro-2H-pyran-4-yl)oxy)-2,3-dihydrobenzo[b]thiophene 1,1-dioxide], the IC50 in test [1] (setting [2]) was found to be 1900 nM. The concentration giving a half-maximal response (EC50) in the test with 786-O-Hif-Luc cells (setting [3]) is 1540 nM.
`N#Cc1cc(F)cc(Oc2ccc(S(=O)(=O)C(F)(F)F)c3c2[C@@H](N)C[C@H]3O)c1` (relative stereo) [Compound 43, 3-((cis-3-amino-1-hydroxy-7-((trifluoromethyl)sulfonyl)-2,3-dihydro-1H-inden-4-yl)oxy)-5-fluorobenzonitrile]: in test [1] (setting [2]), the IC50 was 5100 nM. Also, the 50% effective concentration (EC50) with 786-O-Hif-Luc cells (setting [3]) is 5900 nM.
